The source of these data is ChEMBL document CHEMBL2424534, “Design and synthesis of non-TZD peroxisome proliferator-activated receptor (PPAR) modulator” (2013).

Experiment [1] concerns 3T3-L1. Briefly: Induction of insulin-stimulated [14C]deoxy-glucose uptake in mouse 3T3L1 cells pretreated at 10 uM for 24 hrs before insulin stimulation by scintillation counting relative to vehicle-treated control. The experiment is classed as functional.
In experiment [2] the target is T1, Peroxisome proliferator-activated receptor gamma (Homo sapiens) (UniProt P37231).
T1 sequence (whole entry): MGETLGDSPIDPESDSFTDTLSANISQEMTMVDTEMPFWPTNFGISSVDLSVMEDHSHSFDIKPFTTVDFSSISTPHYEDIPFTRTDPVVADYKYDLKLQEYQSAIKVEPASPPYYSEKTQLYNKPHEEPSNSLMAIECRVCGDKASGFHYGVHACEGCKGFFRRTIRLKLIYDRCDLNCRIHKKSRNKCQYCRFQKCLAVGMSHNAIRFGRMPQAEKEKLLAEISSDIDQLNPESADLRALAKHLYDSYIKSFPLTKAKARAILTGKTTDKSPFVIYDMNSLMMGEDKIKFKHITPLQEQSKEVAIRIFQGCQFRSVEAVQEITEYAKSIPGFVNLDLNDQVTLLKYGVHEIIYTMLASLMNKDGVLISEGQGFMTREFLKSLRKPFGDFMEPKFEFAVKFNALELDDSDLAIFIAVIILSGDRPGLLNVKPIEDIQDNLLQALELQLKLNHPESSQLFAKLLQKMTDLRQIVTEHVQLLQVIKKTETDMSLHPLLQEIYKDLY
The experiment in a line: Agonist activity at PPARgamma (unknown origin) transfected in HEK293 cells assessed as transcriptional activity at 10 uM relative to rosiglitazone. The format is cell-based.

Experiment [3] has as its target T1, Peroxisome proliferator-activated receptor gamma (Homo sapiens). The experiment in a line: Binding affinity to PPARgamma (unknown origin) at 10 uM by Polarscreen competitor assay relative to rosiglitazone.
For experiment [4], the system named is 3T3-L1. Briefly: Induction of adipogenesis in mouse 3T3L1 cells at 20 ug/ml by microscopic analysis relative to rosiglitazone. The format is functional.

With `O=S(=O)(Nc1cnc(OC2CCN(c3ccccc3)CC2)c(Cl)c1)c1ccc(Cl)cc1Cl`, in the experiment on 3T3-L1 [1], the “fold change (FC)” value amounted to 1.26. Besides, the Emax in experiment [2] came to 14%. In experiment [3], this molecule registered an Imax of 79%. This molecule had an Emax at 20 µg/mL in the experiment with 3T3-L1 [4] of 18%.
In the same order, the values of `CN(CCOc1ccc(NS(=O)(=O)c2ccc(Cl)c(Cl)c2)cn1)c1nc2ccccc2o1` are 1.02, 14%, 78% and 20%.
Consider `O=S(=O)(Nc1cnc(OC2CCN(c3ccccc3)CC2)c(Cl)c1)c1ccc(-c2ccccn2)s1`, for which the “fold change (FC)” value in the experiment on 3T3-L1 [1] was determined as 0.93. The Emax in experiment [2] is 13%. Besides, the Imax in experiment [3] amounted to 76%. Also, the Emax at 20 µg/mL in the experiment on 3T3-L1 [4] came to 15%.
Consider `CN(CCOc1ncc(NS(=O)(=O)c2ccc(Cl)cc2Cl)cc1Cl)c1nc2ccccc2o1`, for which the “fold change (FC)” value with 3T3-L1 [1] is listed as 1.12. In addition, the Emax in experiment [2] was 16%. In experiment [3], this molecule showed an Imax of 82%. The Emax at 20 µg/mL with 3T3-L1 [4] was determined as 22%.
Taken in the same sequence, the figures for `COc1ccc(S(=O)(=O)Nc2cnc(OC3CCN(c4ccccc4)CC3)c(Cl)c2)c(OC)c1` were 1.44, 17%, 51% and 20%.
Regarding `O=S(=O)(Nc1cnc(OC2CCN(c3ccccc3)CC2)c(Cl)c1)c1ccc(F)cc1F`, the “fold change (FC)” value in the experiment with 3T3-L1 [1] stood at 1.12. Further, the Emax in experiment [2] was 12%. For the same molecule, the Imax in experiment [3] amounted to 78%. Further, the Emax at 20 µg/mL with 3T3-L1 [4] was 21%.
In the same order, the values of `Cc1ccccc1S(=O)(=O)Nc1cnc(OC2CCN(c3ccccc3)CC2)c(Cl)c1` are 0.97, 12%, 72% and 22%.
In the same order, the values of `O=S(=O)(Nc1cnc(OC2CCN(c3ccccc3)CC2)c(Cl)c1)c1ccc(C(F)(F)F)cc1` are 0.99, 14%, 98% and 20%.
With `COc1ccc(S(=O)(=O)Nc2cnc(OC3CCN(c4ccccc4)CC3)c(Cl)c2)cc1`, the “fold change (FC)” value in the experiment on 3T3-L1 [1] came out at 1.12. Moreover, the Emax in experiment [2] stood at 15%. The same molecule returned an Imax in experiment [3] of 47%. In the experiment with 3T3-L1 [4], the Emax at 20 µg/mL worked out at 30%.
Taken in the same sequence, the figures for `N#Cc1ccc(S(=O)(=O)Nc2cnc(OC3CCN(c4ccccc4)CC3)c(Cl)c2)cc1` were 1.07, 11%, 37% and 20%.
With `O=S(=O)(Nc1cnc(OC2CCN(c3ccccc3)CC2)c(Cl)c1)c1ccc(F)c(Cl)c1`, the “fold change (FC)” value with 3T3-L1 [1] stood at 0.98. Further, in experiment [2], the Emax turned out to be 10%. The molecule also came in with an Imax in experiment [3] of 79%. For the same molecule, the Emax at 20 µg/mL in the experiment on 3T3-L1 [4] amounted to 20%.
